Measurements published in US20230322815A1, “NOVEL COMPOUNDS AND THERAPEUTIC USES THEREOF” (University of Huddersfield, priority 2020, published 2023).

Legend:
HT29 tumors = experiment: Chick embryo chorioallantoic membrane (CAM) assay, in ovo efficacy; assay type: in vivo, human tumor cells on chick embryo CAM; conditions: for dose giving statistically significant regression of tumor growth (mean tumor weight at E18), comparable to SoC: L2Zn3 26.6, 53.2, 106.4 μM, L2Cu3 23.8, 65.7, 131.46 μM, SoC doxorubicin; for HT29 tumor cell metastasis to the lower CAM: any of the tested doses, data not shown
Procedure: FIG. 23. Activity of [L2Cu3]^6+ and [L2Zn3]^6+ against primary HT29 tumors. The results presented represent the mean tumour weight ±SEM following treatment at 3 different doses of [L2Cu3]^6+ and [L2Zn3]^6+: L2Zn3 [1]=26.6 μM, L2Zn3 [2]=53.2 μM, L2Zn3 [3]=106.4 μM; L2Cu3 [1]=23.8 μM, L2Cu3[2]=65.7 μM, L2Cu3[3]=131.46 μM. SoC doxorubicin. Statistical analysis by one way ANOVA (*): 0.05≥p value >0.01; (**): 0.01≥p value >0.001; (***): 0.001≥p value; (****): 0.0001≥p value. Number per experimental group n=10-14.
[L2Cu3]^6+ and [L2Zn3]^6+ were evaluated at three different doses for in ovo anti-cancer activity, toxicity and anti-metastatic activity against tumors initiated from three different human cancer cell line models (H460, HT29, HCT116), in the chick embryo chorioallantoic membrane (CAM) assay.
Each compound was provided to the contract research organisation (CRO) Inovotion (La Tronche, France) conducting the in ovo study, as a powder pre-weighed in single vials (2 equivalents of ligand, 3 equivalents of metal; and stored at room temperature). Before use, this was then dissolved in DMSO to 50 mM to generate a stock solution and further freshly diluted in RPM11640 or McCoys aqueous cell culture media for administration.
A standard of care (SoC) drug for the particular tumour type was tested concurrently as a comparative control for in vivo efficacy and toxicity evaluation. A solvent control served as a negative control for both SoC and experimental compounds.
10^6 tumor cells (H460, HT29 or HCT116) were grafted onto the upper chorioallantoic membrane (CAM) of the developing chick embryo on embryonic day 9 (E9). Access to the upper CAM was through a small hole drilled through the eggshell of fertilized White Leghorn eggs (into the air sac) on E9 (15 eggs per experimental group).
100 μl of freshly prepared experimental compound, vehicle control or standard-of-care (SoC) drug at their working concentrations were pipetted onto the tumor graft at E11, E13, E15 and E17. On day E18, the upper CAM (with tumor) was removed, washed by PBS buffer and then directly transferred in PFA (fixation for 48 hrs). After that, tumors were carefully cut away from normal CAM tissue and weighed.
On day E18, a 1 cm^2 portion of the lower CAM was collected (n=8 per group), stored at −20° C. and later processed to extract DNA. Samples were analysed for human genomic DNA (qPCR for Alu sequences) as a quantitative marker of tumor metastasis to the lower CAM.

[1] = Dephosphorylation of purified phosphorylated AMPK peptide
Procedure: Unless otherwise stated, all solvents and materials were purchased from either Sigma Aldrich, Fisher Scientific or Fluorochem and were used without further purification. ^1H, ^13C, DEPT-135 and DEPT-90 NMR data was recorded on either a Bruker Fourier 300 MHz or Bruker Avance III (AVIII) 400 MHz spectrometer or a Bruker Avance Neo 600 MHz NMR spectrometer. Mass spectra were obtained on an Agilent 6210 TOF MS with electrospray ionisation operating in positive ion mode and mass spectra of metal complexes were obtained on a Bruker Micro TOF-q LC mass spectrometer with electrospray ionisation operating in positive ion mode. Phosphorylated ‘SAMS’ peptide HMRSAMS*GLHLVKRR (phosphorylated on the serine residue) was obtained from PeptideSynthetics, Peptide Protein Research Ltd (>95% purity).
There are several potential mechanisms which could lead the observed kinase inhibition ‘readout’ of this screen including, i) direct ATP hydrolysis by the complex(es) and differing Km of the kinases for ATP, and, ii) dephosphorylation of the peptide substrate by the phosphatase activity of the Zn^2+ complex resulting in cycles of peptide phosphorylation by active recombinant enzyme and dephosphorylation by the complex.

140 human kinases = experiment: Cell-free screen of 140 kinases (33P ATP, Premier Screen); assay type: biochemical; conditions: 10 μM complex
Procedure: FIG. 9. Effects of [L2Zn3]^6+ and [L2Cu3]^6+ on the activity of purified human kinases. a,b, Percentage inhibition of the indicated kinases by [L2Zn3]^6+ (a) and [L2Cu3]^6+ (b) respectively at a concentration of 10 μM; full results are presented in the ESI. c,d, Kinases whose activity is stimulated by [L2Zn3]^6+ (c) or [L2Cu3]^6+ (d) complexes. e,f, Kinome map showing kinases inhibited (red) or stimulated (green) by [L2Zn3]^6+ (e) or [L2Cu3]^6+ (f). III ustration reproduced courtesy of Cell Signalling Technology Inc (www.cellsignal.com)
FIG. 16. The effect of [L2Zn3]^6+ and [L2Cu3]^6+ on the activity of recombinant human kinases. The compounds were submitted to the MRC Protein Phosphorylation and Ubiquitination Unit International Centre for Kinase Profiling (University of Dundee) and tested at a concentration of 10 μM against 140 human kinases (Premier Screen).
Given the ability of the Zn^2+ complex to dephosphorylate amino acids serine, tyrosine and threonine (FIG. 6) and the Cu^2+ complex to bind phenyl phosphate (FIG. 3), it was examined whether the complexes affect the activity of kinases. This was assessed in a cell-free screen of 140 kinases using purified recombinant human kinases and substrate peptides incubated in the presence of ^33P ATP and 10 μM complex or solvent control. […]

Structure (SMILES) | dose giving statistically significant regression of tumor growth (mean tumor weight at E18), comparable to SoC (HT29 tumors) | HT29 tumor cell metastasis to the lower CAM (HT29 tumors) | dephosphorylation of phosphorylated AMPK peptide [1] | inhibition of the most potently inhibited kinases (140 human kinases) [%]
[Zn+2].[Zn+2].[Zn+2].c1ccc(-c2csc(NCCN(CCNc3nc(-c4ccccn4)cs3)CCNc3nc(-c4ccccn4)cs3)n2)nc1.c1ccc(-c2csc(NCCN(CCNc3nc(-c4ccccn4)cs3)CCNc3nc(-c4ccccn4)cs3)n2)nc1 [[L2Zn3]^6+] | highest tested dose | no reduction | neither complex resulted in dephosphorylation | ~100
[Cu+2].[Cu+2].[Cu+2].c1ccc(-c2csc(NCCN(CCNc3nc(-c4ccccn4)cs3)CCNc3nc(-c4ccccn4)cs3)n2)nc1.c1ccc(-c2csc(NCCN(CCNc3nc(-c4ccccn4)cs3)CCNc3nc(-c4ccccn4)cs3)n2)nc1 [[L2Cu3]^6+] | highest tested dose | no reduction | neither complex resulted in dephosphorylation | ~100
